The source of these data is patent publication US10555923B2, “Method for treating paroxysmal nocturnal hemoglobinuria” (ENZYCHEM LIFESCIENCES CORPORATION, priority 2015, dated 2020).

The target of series [1] is T1, STAT6 (Homo sapiens, UniProt P42226).
T1 construct: using anti-phosphorylated STAT6 in U937, A549, and Jurkat cell lysates treated with PLAG; endogenous in cells; host or cells: U937, A549, Jurkat
T1 sequence (P42226 1-847): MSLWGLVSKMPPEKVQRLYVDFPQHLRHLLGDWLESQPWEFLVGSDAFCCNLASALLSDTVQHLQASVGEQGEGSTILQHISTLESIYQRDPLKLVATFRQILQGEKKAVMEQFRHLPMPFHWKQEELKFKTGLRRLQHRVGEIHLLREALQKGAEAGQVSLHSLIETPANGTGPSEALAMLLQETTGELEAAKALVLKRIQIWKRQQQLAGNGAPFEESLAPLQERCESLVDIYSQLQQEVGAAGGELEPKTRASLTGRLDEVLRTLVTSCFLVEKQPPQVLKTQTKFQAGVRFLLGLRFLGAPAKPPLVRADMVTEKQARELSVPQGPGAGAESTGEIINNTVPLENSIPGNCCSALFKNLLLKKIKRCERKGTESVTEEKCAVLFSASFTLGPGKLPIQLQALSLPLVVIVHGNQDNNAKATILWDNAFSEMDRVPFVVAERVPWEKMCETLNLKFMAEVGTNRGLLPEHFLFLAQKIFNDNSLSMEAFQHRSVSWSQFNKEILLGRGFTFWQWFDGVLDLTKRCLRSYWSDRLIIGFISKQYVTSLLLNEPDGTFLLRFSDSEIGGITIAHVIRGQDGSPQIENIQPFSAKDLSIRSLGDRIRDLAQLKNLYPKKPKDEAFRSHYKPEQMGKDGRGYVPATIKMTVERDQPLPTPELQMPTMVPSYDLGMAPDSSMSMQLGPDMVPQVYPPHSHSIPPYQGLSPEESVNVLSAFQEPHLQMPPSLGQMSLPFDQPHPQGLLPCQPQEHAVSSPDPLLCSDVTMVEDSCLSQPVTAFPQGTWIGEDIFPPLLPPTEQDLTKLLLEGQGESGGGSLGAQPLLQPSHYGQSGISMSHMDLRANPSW
As to the kind of experiment: Dephosphorylation of STAT6 in IL-4 stimulated cell lysates (Western blot). In kind it is cell-based. Particulars: U937, Jurkat and A549 cells; PLAG 0.01 to 10 μg/ml; 10 ng/ml IL-4; 15 min after stimulation. The method, then: Dephosphorylation of STAT6 is examined using anti-phosphorylated STAT6 in U937, A549, and Jurkat cell lysates treated with PLAG at a concentration from 0.01 to 10 μg/ml. Phosphorylation of STAT6 is induced by treatment with 10 ng/ml of IL-4. Dephosphorylation of STAT1 is examined in the U937 cell lysate treated with PLAG (0.01 to 10 μg/ml). Phosphorylation of STAT1 is induced by 10 ng of IFN-γ treatment. Dephosphorylation of STAT1 and STAT6 is examined at 15 min after stimulation with IFN-γ and IL-4 respectively, in the PLAG pretreated cells. […] The transcriptional activity of STAT6 is decreased by the dephosphorylation of STAT6. […] No effect of PLAG on STAT1 phosphorylation is observed.

In series [2] the test system is HepG2 cells. As to the kind of experiment: WST-1 cell viability assay in HepG2 cells. In kind it is cell-based. Conditions: PLAG 1 to 100 μg/ml. As for the experimental part: (§1) The incubated HepG2 cell lines are treated with PLAG (1˜100 μg/ml), followed by IL-4 and TNF-α, reacted for 1 hour, incubated for 18 hours at 37° C. and the supernatant is isolated. Quantitation of the amount of C3 in the cellular culture medium (supernatant) from HepG2 cells is performed by ELISA using a commercially available monoclonal antibody (mAb, R&D Systems) and the manufacture's protocol; the results are presented in FIGS. 3A-3C. C3 is expressed spontaneously under in vitro culture conditions using 10% FCS added to HepG2 cells and incubated for 12 hr. The cells are treated with PLAG from 1 to 100 μg/ml (FIG. 3A, FIG. 3B) or 10 and 100 μg/ml of S6I (FIG. 3C), reacted with IL-4 and TNF-α for 1 hr and then incubated for 18 hr at 37° C. Cellular viability is confirmed using the WST-1 assay (FIG. 3A).

The test system of series [3] is C3. Briefly: C3 inhibition in HMC-1 cells (ELISA). In kind it is cell-based, human. Particulars: PLAG 1, 10 and 100 μg/mL for 2 hours, activated 72 hours with 10% FBS. As for the experimental part: In a separate experiment, human mast cells (HMC-1, 1×10^5 cell/ml) are treated with PLAG of various concentrations (1, 10 and 100 μg/mL) for 2 hours. The cells are activated for 72 hours with 10% FBS (Fetal bovine serum) containing IMDM. The decrease of C3 is confirmed by ELISA analysis of the expressed protein.

Series [4] is described as follows: Colony forming units (CFUs) in spleen assay in heavily irradiated mice. Conditions: 50 mg/kg/d i.p. or p.o. In kind it is in vivo. The method, then:
In order to determine the in vivo effect of PLAG on the recovery of hematopoiesis, a CFUs assay is performed in heavily irradiated mice.

The test system of series [5] is hematopoietic stem cells and megakaryocytes. Particulars: reported in WO 99/26640; cited from earlier work.
Series [6] concerns STAT6. As to the kind of experiment: Reporter (luciferase) assay for STAT6 transcriptional activity in HepG2 cells. In kind it is cell-based, human. Particulars: 10 ng IL-4, PLAG 0.01-10 μg/ml, 12 hour incubation. The method, then:
(§2) By using STAT6 inhibitor (S6I), it is confirmed that the reduction of complement 3 in HepG2 cells (human hepatocyte cell line) is regulated by STAT6. […] It is also confirmed that PLAG has selective efficacy on STAT6 over STAT1. FIG. 1 presents graphs showing STAT1 and STAT6 transcriptional activity in the PLAG treated HepG2 cells. NC refers to the unstimulated control cell. For the STAT1 assay, gene transfected HepG2 (human hepatocyte cell line) is treated with 10 ng of IFN-γ and serially diluted PLAG is added (0.01 μg/ml, 0.1 μg/ml, 1 μg/ml, and 10 μg/ml as shown) to see its effect on gene expression in the stimulated cell. For the STAT6 assay, gene transfected HepG2 cells are treated with 10 ng of IL-4 and again serially diluted PLAG is added (0.01 μg/ml, 0.1 μg/ml, 1 μg/ml, and 10 μg/ml as shown) to see its effect on gene expression in the stimulated cell. The assay is carried out following a 12 hour incubation of treated cells.

Series [7] concerns C3. Briefly: In vitro inhibition of C3 expression in HMC-1 cells (IL-4/TNF-α induced, RT-PCR). In kind it is cell-based, human. Particulars: IL-4 (5 ng) and TNF-α (10 ng), PLAG 0.1 and 1 μg/mL. The method, then: A blood cell line, HMC-1 (human mast cell, American Type Culture Collection, ATCC, Rockville, Md.) is incubated and maintained at 37° C. under 5% CO2 humid conditions. The medium is IMDM (Life Technologies, Karlsruhe, Germany) containing 10% Fetal Calf Serum (FCS, HyClone, Logan, Utah), 2 mM […], 100 μg/ml penicillin, 100 μg/ml streptomycin (Life Technologies). The cultured HMC-1 cells (1×10^6 cell/ml) are pretreated with 0.1 and 1 μg/mL concentrations of PLAG, followed by treatment with IL-4 (5 ng) and/or TNF-α (10 ng) to induce cellular activities.
The expressed C3 and its mRNA level changes are observed by using RT-PCR (Reverse Transcriptase Polymerase Chain Reaction). The RT-PCR is carried out as follows: the total RNA is separated by the standard protocol and cDNA is synthesized using AccuScript High Fidelity 1st Strand cDNA Synthesis Kit (Stratagene). Two-step RT-PCR reaction is conducted using Oligo-dT primer and reverse transcriptase, pair of primers and Taq polymerase (Takara, Shiga, Japan). […] The product of PCR is separated using 1.5% agarose gel, dyed with ethidium bromide (EtBr), and visualized with Gel Doc 2000 UV trans-illuminator (Bio-Rad Laboratories, Hercules, Calif., USA), and the experimental data is analyzed using Quantity One software (Bio-Rad Laboratories).

Series [8] has as its system complement 3. As to the kind of experiment: Complement 3 activation by chemotherapeutic agents in mouse model. In kind it is in vivo. Particulars: mice; PLAG 50 mg/kg daily 3 weeks with Gemcitabine, Cyclosphosphamide or Tamoxifen. The method, then: The effect of PLAG for treatment of chemotherapy-induced thrombocytopenia (CIT) is evaluated in an animal model. Anti-cancer agents (Gemcitabine 50 mg/kg, Cyclosphosphamide 100 mg/kg, or Tamoxifen 50 mg/kg) are dosed daily for 3 weeks; PLAG is also administered at 50 mg/kg daily for 3 weeks.
It is believed that the leukopenia and thrombocytopenia of these agents and other chemotherapeutic agents may be due at least in part to a specific complement-mediated toxicity. This is seen in FIG. 5.

Series [9] concerns C3. As to the kind of experiment: C3 mRNA expression in HepG2 cell line (RT-PCR). In kind it is cell-based, human. The method, then: A liver cell line, HepG2 (American Type Culture Collection, ATCC, Rockville, Md.), is incubated and maintained at 37° C., 5% CO2 humid atmosphere in DMEM medium. When HepG2 cells, which are known to produce complement in culture, are treated with PLAG, the activity of complement is reduced effectively, as confirmed by RT-PCR of mRNA. In the RT-PCR, 5×10^5 HepG2 cells/ml are distributed into 12 well plates and induced C3 for 12 hours with 10% FCS. Then PLAG is added and further cultured for 2 hours. Cells are harvested and mRNA is isolated and RT-PCR is carried out with specific primers for C3; GAPDH is used as an internal control.

For series [10], the system named is STAT1. As to the kind of experiment: Reporter assay for STAT1 transcriptional activity in HepG2 cells. In kind it is cell-based, human. Particulars: 10 ng IFN-γ, PLAG 0.01-10 μg/ml, 12 hour incubation. The method, then: as §2
In series [11] the test system is C3. As to the kind of experiment: C3 in culture supernatant of HepG2 cells (ELISA). In kind it is cell-based, human. Conditions: PLAG 1 to 100 μg/ml or S6I 10 and 100 μg/ml, IL-4 and TNF-α 1 hr, incubated 18 hr. As for the experimental part:
as §1

`CCCCC/C=C\C/C=C\CCCCCCCC(=O)OC(COC(C)=O)COC(=O)CCCCCCCCCCCCCCC` (racemic) [PLAG, 1-palmitoyl-2-linoleoyl-3-acetylglycerol]: the “IL-4 treatment induced STAT6 phosphorylation” value in [1] is given as “inhibited with increasing PLAG concentrations”. In series [2], the “cellular propagation and death (WST-1 viability)” value was “does not affect the cellular propagation and death”. Also, the “decrease of C3 (ELISA of expressed protein)” value in [3] is recorded as “proportional to the concentration of PLAG”. Moreover, the “number of splenic nodules, primitive progenitor cells and megakaryocytes” value in series [4] was “marked increase”. In addition, the “growth-stimulating activities of hematopoietic stem cells and megakaryocytes” value in series [5] was “have growth-stimulating activities”. Moreover, the “STAT6 transcriptional activity (expression)” value in [6] was “significant, dose-dependent effect”. In addition, the “expression of C3” value in series [7] is “suppressed by PLAG on a concentration dependent basis”. Also, the “blockage of chemotherapy-induced complement 3 activation” value in [8] is “largely blocked”. Also, the “inhibition of C3 expression (mRNA, RT-PCR)” value in series [9] (PLAG 1 μg/ml, 2 hours) was “somewhat”; in [9] (PLAG 10 μg/ml, 2 hours), “entirely”. Moreover, the “STAT1 transcriptional activity (expression)” value in series [10] is reported as “no effect”. In [11], the “expression of C3 (amount in supernatant, ELISA)” value is listed as “decreased dose-dependently”.
For `NC(=O)c1cnc(NCCc2ccc(O)c(Cl)c2)nc1NCc1ccccc1` [S6I, reference compound], the “expression of C3” value in series [7] is “suppresses expression of C3”. The “inhibition of C3 expression (mRNA, RT-PCR)” value in [9] (S6I 10 and 100 μg/ml, compared with PLAG 1 and 10 μg/ml) is reported as “comparable”.
